# Experiments:
# recombinant CSN complex = test: Peptide array screen of C-CSNAP peptides with recombinant CSN (rCSN^WT); type: binding; conditions: for Average fold change: peptide array with rCSN, average of 3 experiments, left and right (n = 6), fold of C-CSNAP (A1); for Average fold change, intensities as fold of C-CSNAP (A1): rCSN^WT on INTAVIS Celluspots array, anti-CSN3 and HRP secondary antibody, average of six replicates (three independent experiments in duplicates);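 for all read-outs here: densitometric signal of CSN bound to each synthesized peptide spot, with an antibody-only array lacking CSN run to exclude non-specific binding, higher values meaning stronger binding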
# Experimental: To generate an optimized C-CSNAP peptide, we used the peptide array methodology. The array was designed to screen for the optimal peptide length, sequence, and stability (Fig 3A). A recombinant CSN complex was expressed, purified, and screened for binding to the peptide array by using an anti-CSN3 antibody. To rule out non-specific binding of the probing antibody, a control experiment was carried out without the addition of the CSN complex (Fig 3A right panel).
# C-CSNAP peptide and its derivatives were synthesized on a microarray. The array was blocked and incubated with or without the COP9 signalosome complex (CSN) and probed using an anti-CSN3 antibody and HRP-conjugated secondary antibody. To assess non-specific binding of the antibodies to the array, anti-CSN3 and anti-GAR–HRP were used without the addition of the CSN. Signal intensity of each spot was measured and normalized to the intensity of the spot of C-CSNAP (A1). Measured values for each spot were averaged from six arrays and plotted with SEM. […] (A) A representative image of the peptide array (left) and the background (right). (B) Elongation of the C-terminal 16 amino acids (green) with one residue at a time based on the full-length sequence. […] (F) Single D-amino acid substitution at various positions.
# (§1) Intensity values are normalized to the intensity of the 16AA C-CSNAP peptide (A1) on each array from three independent experiments in duplicates, and averages from the six replicates are calculated with SEM.
# (§2) Optimization of C-CSNAP sequence for enhanced binding to recombinant CSN^ΔCSNAP was screened by printing the modified sequences of CSNAP or C-CSNAP (Phe to Trp, Asp to Glu, Ala screen, D-amino acid screen, N-α-methylation, and Aib incorporation on INTAVIS Celluspots array [2 × 384spots]). The array was blocked with 5% skim milk in TBS-0.5% Tween 20 (TBS-T) for 4 h at room temperature, washed three times in TBS-T, and then incubated with 0.5 μM CSN^ΔCSNAP in 5% milk–TBS-T. Bound CSN^ΔCSNAP was visualized by incubating with anti-CSN3 (ab79698) antibody (1:10,000, overnight) and goat-anti-rabbit-HRP secondary antibody (1:10,000, 1 h).
# CSN^ΔCSNAP complex = test: Peptide array screen of C-CSNAP peptides with rCSN^ΔCSNAP; type: binding; conditions: average of 5 experiments;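 note: Array-printed peptides incubated with 0.5 µM CSN^ΔCSNAP, bound complex detected by anti-CSN3 antibody plus HRP-linked secondary, spot intensity expressed relative to the parent reference peptide spot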
# Experimental: Peptide array screen of modified C-CSNAP peptides. C-CSNAP peptide and its derivatives were printed on a microarray. The array was blocked and incubated with or without the CSN∆CSNAP complex and probed using an anti-CSN3 antibody and HRP-conjugated secondary antibody. To assess non-specific binding of the antibodies to the array, anti-CSN3 and anti-GAR-HRP were used without the addition of the COP9 signalosome complex (CSN). Signal intensity of each spot was measured and normalized to the intensity of the spot of C-CSNAP (A1). Measured values for each spot were averaged from six arrays and plotted with standard errors SEM.
# as §1, §2
# [1] = peptide array, rCSN^ΔCSNAP, left and right spots
# [2] = peptide array with rCSN^ΔCSNAP, left and right (n = 10), fold of C-CSNAP (A1)
Sequence,Average fold change (recombinant CSN complex),Average fold change (CSN^ΔCSNAP complex; [1]),"Average fold change, intensities as fold of C-CSNAP (A1) (recombinant CSN complex)",Average fold change (CSN^ΔCSNAP complex; [2])
"DFFNEFEELFEDDEIQ [D46,49,52,55E]",0.6253 fold,1.1176 fold of C-CSNAP (A1),–,–
"DWFNDWEDLFDDDDIQ [Position C17, C-CSNAP, Phe to Trp substitution F43,47W]",–,1.5247 fold of C-CSNAP (A1),0.7959 fold of C-CSNAP (A1),–
"DFFNEFEELFEEDDIQ [D46,49,52,53E]",0.5885 fold,0.8013 fold of C-CSNAP (A1),–,–
"GPYVDLDEAGGSTGLLMDLAANEKAVHADFFNDFEDLFDDDDIQ [B 5, CSNAP residues 14-57]",–,–,1.1075 fold of C-CSNAP (A1),0.9816 fold
"EAGGSTGLLMDLAANEKAVHADFFNDFEDLFDDDDIQ [Position A22, CSNAP residues 21-57]",–,–,1.1428 fold of C-CSNAP (A1),1.3163 fold
"STGLLMDLAANEKAVHADFFNDFEDLFDDDDIQ [Position A18, CSNAP residues 25-57]",–,–,0.9600 fold of C-CSNAP (A1),1.3562 fold
"DFFNDFEELFEDDDIQ [Position D21, C-CSNAP, Asp to Glu substitution D49,52E]",–,1.3626 fold of C-CSNAP (A1),0.6335 fold of C-CSNAP (A1),–
"EFFNEFEELFEEEDIQ [D42,46,49,52,53, 54E]",0.5691 fold,0.9285 fold of C-CSNAP (A1),–,–
"DFFNDWEDLFDDDDIQ [Position C14, C-CSNAP, Phe to Trp substitution F47W]",–,1.1204 fold of C-CSNAP (A1),0.9440 fold of C-CSNAP (A1),–
"YVDLDEAGGSTGLLMDLAANEKAVHADFFNDFEDLFDDDDIQ [B 3, CSNAP residues 16-57]",–,–,1.1108 fold of C-CSNAP (A1),0.9215 fold
"EFFNDFEELFEDDDIQ [E 9, C-CSNAP, Asp to Glu substitution D42,49,52E]",–,1.0112 fold of C-CSNAP (A1),0.6782 fold of C-CSNAP (A1),–
"DFFNDFEELFEEEDIQ [D49,52,53,54E]",0.6224 fold,0.9844 fold of C-CSNAP (A1),–,–
"EFFNEFEELFEEDDIQ [D42,46,49,52,53E]",0.6954 fold,1.2332 fold of C-CSNAP (A1),–,–
"EFFNEFEELFEDEEIQ [D42,46,49,52,54,55E]",0.2605 fold,1.1157 fold of C-CSNAP (A1),–,–
"DFFNDFEELFEEDDIQ [Position E17, C-CSNAP, Asp to Glu substitution D49,52,53E]",–,1.2373 fold of C-CSNAP (A1),0.6206 fold of C-CSNAP (A1),–
"DFFNEFEDLFDEDDIQ [Position D18, C-CSNAP, Asp to Glu substitution D46,53E]",–,1.0532 fold of C-CSNAP (A1),0.5559 fold of C-CSNAP (A1),–
"DFFNDFEELFEEDEIQ [D49,52,53,55E]",0.6996 fold,1.1749 fold of C-CSNAP (A1),–,–
"EFFNEFEDLFDDDEIQ [E 8, C-CSNAP, Asp to Glu substitution D42,46,55E]",–,0.9227 fold of C-CSNAP (A1),0.7616 fold of C-CSNAP (A1),–
"DFFNEFEDLFEDDDIQ [Position D17, C-CSNAP, Asp to Glu substitution D46,52E]",–,1.1441 fold of C-CSNAP (A1),0.7655 fold of C-CSNAP (A1),–
"DFFNEFEELFDEEEIQ [D46,49,53,54,55E]",0.6202 fold,1.4630 fold of C-CSNAP (A1),–,–
"DLDEAGGSTGLLMDLAANEKAVHADFFNDFEDLFDDDDIQ [B 1, CSNAP residues 18-57]",–,–,1.1704 fold of C-CSNAP (A1),0.9126 fold
"EFFNEFEELFDEEEIQ [D42,46,49,53,54,55E]",0.3621 fold,1.0322 fold of C-CSNAP (A1),–,–
"EFFNEFEELFDDDEIQ [D42,46,49,55E]",0.5938 fold,0.8257 fold of C-CSNAP (A1),–,–
"EFFNDFEELFDDDEIQ [Position E12, C-CSNAP, Asp to Glu substitution D42,49,55E]",–,0.9711 fold of C-CSNAP (A1),0.6694 fold of C-CSNAP (A1),–
"EFFNDFEDLFDEDDIQ [Position D13, C-CSNAP, Asp to Glu substitution D42,53E]",–,1.1346 fold of C-CSNAP (A1),0.7560 fold of C-CSNAP (A1),–
"DWFNDFEDLFDDDDIQ [Position C12, C-CSNAP, Phe to Trp substitution F43W]",–,1.2910 fold of C-CSNAP (A1),0.7756 fold of C-CSNAP (A1),–

Sequence,Average fold change (recombinant CSN complex),Average fold change (CSN^ΔCSNAP complex; [1]),"Average fold change, intensities as fold of C-CSNAP (A1) (recombinant CSN complex)",Average fold change (CSN^ΔCSNAP complex; [2])
"DFFNDFEDLFEDDEIQ [E 3, C-CSNAP, Asp to Glu substitution D52,55E]",–,0.8137 fold of C-CSNAP (A1),0.8879 fold of C-CSNAP (A1),–
"DLAANEKAVHADFFNDFEDLFDDDDIQ [Position A12, CSNAP residues 31-57]",–,–,0.9978 fold of C-CSNAP (A1),1.0405 fold
"DFFNEFEDLFDDEDIQ [Position D19, C-CSNAP, Asp to Glu substitution D46,54E]",–,1.1127 fold of C-CSNAP (A1),0.6165 fold of C-CSNAP (A1),–
"AANEKAVHADFFNDFEDLFDDDDIQ [Position A10, CSNAP residues 33-57]",–,–,1.0826 fold of C-CSNAP (A1),0.9871 fold
"DFFNDFEELFEDEDIQ [Position E18, C-CSNAP, Asp to Glu substitution D49,52,54E]",–,0.9681 fold of C-CSNAP (A1),0.6310 fold of C-CSNAP (A1),–
"DFFNDFEDLFEEDDIQ [E 1, C-CSNAP, Asp to Glu substitution D52,53E]",–,1.1244 fold of C-CSNAP (A1),0.6914 fold of C-CSNAP (A1),–
"ADFFNDFEDLFDDDDIQ [A 2, CSNAP residues 41-57]",–,–,0.9705 fold of C-CSNAP (A1),0.9058 fold
"DFFNEFEELFEEEEIQ [D46,49,52,53,54,55E]",0.5470 fold,1.0133 fold of C-CSNAP (A1),–,–
"DFFNDFEDLFDEDDIQ [D 7, C-CSNAP, Asp to Glu substitution D53E]",–,1.1500 fold of C-CSNAP (A1),0.9008 fold of C-CSNAP (A1),–
"LAANEKAVHADFFNDFEDLFDDDDIQ [Position A11, CSNAP residues 32-57]",–,–,1.1357 fold of C-CSNAP (A1),1.1791 fold
"EFFNEFEELFEEEDIQ [D42,46,49,52,53,55E]",0.4075 fold,1.2784 fold of C-CSNAP (A1),–,–
"EFFNEFEELFEDDEIQ [D42,46,49,52,55E]",0.5210 fold,0.9893 fold of C-CSNAP (A1),–,–
"EFFNDFEELFDDDDIQ [Position D11, C-CSNAP, Asp to Glu substitution D42,49E]",–,1.0773 fold of C-CSNAP (A1),0.8480 fold of C-CSNAP (A1),–
"EFFNDFEELFEDEDIQ [D42,49,52,54E]",0.7100 fold,1.0950 fold of C-CSNAP (A1),–,–
"DFFNDFEDLFEEEDIQ [D52,53,54E]",–,1.1046 fold of C-CSNAP (A1),–,–
"EMFPEGAGPYVDLDEAGGSTGLLMDLAANEKAVHADFFNDFEDLFDDDDIQ [Position B12, CSNAP residues 7-57]",–,–,0.8904 fold of C-CSNAP (A1),1.1057 fold
"DWFNDFEDLWDDDDIQ [Position C18, C-CSNAP, Phe to Trp substitution F43,51W]",–,1.2485 fold of C-CSNAP (A1),0.5534 fold of C-CSNAP (A1),–
"EGAGPYVDLDEAGGSTGLLMDLAANEKAVHADFFNDFEDLFDDDDIQ [B 8, CSNAP residues 11-57]",–,–,0.8775 fold of C-CSNAP (A1),0.9764 fold
"EFFNDFEELFEEDDIQ [D42,49,52,53E]",0.7257 fold,0.8283 fold of C-CSNAP (A1),–,–
"EFFNDFEELFDEDDIQ [Position E10, C-CSNAP, Asp to Glu substitution D42,49,53E]",–,1.1579 fold of C-CSNAP (A1),0.6945 fold of C-CSNAP (A1),–
"DWWNDFEDLFDDDDIQ [Position C16, C-CSNAP, Phe to Trp substitution F43,44W]",–,1.3233 fold of C-CSNAP (A1),0.7427 fold of C-CSNAP (A1),–
"DFFNEFEELFEEDEIQ [D46,49,52,53,55E]",0.5677 fold,1.1600 fold of C-CSNAP (A1),–,–
"EFFNEFEDLFEDDDIQ [Position D12, C-CSNAP, Asp to Glu substitution D42,52E]",–,1.0147 fold of C-CSNAP (A1),0.7025 fold of C-CSNAP (A1),–
"GGSTGLLMDLAANEKAVHADFFNDFEDLFDDDDIQ [Position A20, CSNAP residues 23-57]",–,–,0.8793 fold of C-CSNAP (A1),1.1737 fold
"EFFNDFEDLFEEDEIQ [D42,52,53,55E]",0.6502 fold,1.0660 fold of C-CSNAP (A1),–,–

# From article PMC10355216, “The C-terminal tail of CSNAP attenuates the CSN complex” (Life Science Alliance, 2023)
